Assay results reported in patent publication US20090149506A1, “INSECTICIDAL COMPOSITIONS WITH IMPROVED EFFECT” (Bayer CropScience AG, priority 2005, published 2009).

Tests used:
[1] = tested on: cotton aphid (Aphis gossypii); test: Aphis gossypii test (APHIGO), spray treatment of infested cotton leaves; assay type: in vivo; settings: 0.8 ppm, after 6 d, spray on cotton leaves (Gossypium hirsutum); 100% = all aphids killed, 0% = none killed
Protocol: Aphis gossypii Test (APHIGO)
(§1) To produce a suitable preparation of active compound, 1 part by weight of active compound is mixed with the stated amounts of solvent and emulsifier, and the concentrate is diluted with emulsifier-containing water to the desired concentration. If addition of ammonium salts or ammonium salts and penetrant is required, the appropriate amount is added by pipette after dilution of the respective finished preparation solution.
Cotton leaves (Gossypium hirsutum) which are heavily infested by the cotton aphid (Aphis gossypii) are sprayed with an active compound preparation of the desired concentration.
(§2) After the desired period of time, the kill in % is determined. 100% means that all aphids have been killed; 0% means that none of the aphids have been killed.
(§3) In this test, for example, the following embodiments of the invention show good activity: see table below

[2] = tested on: Green peach aphid (Myzus persicae); test: Myzus persicae test (MYZUPE), spray treatment of infested bell pepper plants; assay type: in vivo; settings: 0.8 ppm, after 6 d, spray on bell pepper plants (Capsicum annuum); 100% = all aphids killed, 0% = none killed
Protocol: Myzus persicae Test (MYZUPE)
as §1
Bell pepper plants (Capsicum annuum) which are heavily infested by the Green peach aphid (Myzus persicaei) are treated by spraying with the active compound preparation of the desired concentration.
as §2, §3

CNC(=O)c1cc(Cl)cc(C)c1NC(=O)c1cc(Br)nn1-c1ncccc1Cl [Example I-1-3]
kill in % (% 6 d) [1]: 0% | kill in % (% 6 d) [2]: 0%
